Experiments:
[1] = biological target: T1, PPAR-gamma (Homo sapiens, UniProt P37231); conditions: Rocchi et al, Mol Cell 8:737-47, 2001; cited from earlier work
T1 sequence (P37231 1-505): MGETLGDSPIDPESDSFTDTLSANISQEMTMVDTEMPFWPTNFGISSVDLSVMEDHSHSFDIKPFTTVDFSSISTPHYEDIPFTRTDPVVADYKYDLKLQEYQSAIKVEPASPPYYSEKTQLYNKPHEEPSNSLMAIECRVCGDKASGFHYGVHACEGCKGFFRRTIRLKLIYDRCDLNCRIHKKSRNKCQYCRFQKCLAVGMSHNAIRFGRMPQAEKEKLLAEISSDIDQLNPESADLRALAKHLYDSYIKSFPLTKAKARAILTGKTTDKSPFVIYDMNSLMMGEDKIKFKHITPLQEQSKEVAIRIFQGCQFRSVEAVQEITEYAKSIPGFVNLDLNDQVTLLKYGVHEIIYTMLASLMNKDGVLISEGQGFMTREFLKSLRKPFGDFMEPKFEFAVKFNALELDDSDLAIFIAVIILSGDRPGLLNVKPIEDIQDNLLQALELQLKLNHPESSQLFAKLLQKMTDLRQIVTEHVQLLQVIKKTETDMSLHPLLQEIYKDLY

[2] = tested on: HepG2 cells; experiment: Glycogen synthesis in HepG2 cells; assay type: cell-based
[3] = tested on: db/db mice; conditions: db/db mice, 50 mg/kg/day orally, 14 days, FIG. 16A
[4] = tested on: IkappaB; experiment: LPS-stimulated phosphorylation of IkappaB in RAW 264.7 cells; assay type: cell-based; conditions: RAW 264.7 cells, 3, 10 or 30, LPS plus IFN-gamma, anti-phospho-IkappaB blot
[5] = tested on: NF-kB p65; experiment: NF-kB p65 activation in LPS-stimulated RAW cells (ELISA); assay type: cell-based; conditions: 10 μM, 1 μg/ml LPS 15 min, FIG. 15
[6] = biological target: T2, COX-2 (Mus musculus, UniProt Q05769); experiment: LPS-induced COX-2 activity in RAW cells (PGE2 production); assay type: cell-based; conditions: 0.1-100 μM, FIG. 12
T2 sequence (Q05769 18-604): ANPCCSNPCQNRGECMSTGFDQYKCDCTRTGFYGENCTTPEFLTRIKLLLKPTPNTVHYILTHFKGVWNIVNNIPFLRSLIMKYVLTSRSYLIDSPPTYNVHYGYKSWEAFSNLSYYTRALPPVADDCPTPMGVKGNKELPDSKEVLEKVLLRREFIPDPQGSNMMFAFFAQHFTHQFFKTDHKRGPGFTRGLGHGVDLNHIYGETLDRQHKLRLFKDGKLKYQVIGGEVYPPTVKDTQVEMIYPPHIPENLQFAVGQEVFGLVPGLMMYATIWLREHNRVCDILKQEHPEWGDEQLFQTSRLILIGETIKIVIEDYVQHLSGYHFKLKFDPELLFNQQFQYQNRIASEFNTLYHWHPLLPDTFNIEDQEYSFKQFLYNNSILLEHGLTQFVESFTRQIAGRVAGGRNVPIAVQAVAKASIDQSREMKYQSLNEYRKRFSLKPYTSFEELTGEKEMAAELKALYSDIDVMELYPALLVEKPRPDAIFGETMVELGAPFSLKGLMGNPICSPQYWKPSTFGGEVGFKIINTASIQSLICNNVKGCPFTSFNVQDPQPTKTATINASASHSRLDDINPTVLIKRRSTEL
Method: (§1) After 1 hour LPS (0.1 pg/mL) was added and cells were incubated an additional 6 hours. Cell supernatant was then collected, aliquoted and frozen at −70° C., and aliquots used to determine COX-2 and COX-1 activity. Compound 11, but not rosiglitazone, inhibited the activity of COX-2 (as measured by PGE2 production in a 50 μl sample).

[7] = biological target: T3, COX-1 (Mus musculus, UniProt P22437); experiment: COX-1 activity in RAW cells; assay type: cell-based; conditions: 0.1-100 μM
T3 construct: aliquots used to determine COX-2 and COX-1 activity; endogenous in cells; host or cells: RAW (RAW 264.7) cells
T3 sequence (P22437 27-602): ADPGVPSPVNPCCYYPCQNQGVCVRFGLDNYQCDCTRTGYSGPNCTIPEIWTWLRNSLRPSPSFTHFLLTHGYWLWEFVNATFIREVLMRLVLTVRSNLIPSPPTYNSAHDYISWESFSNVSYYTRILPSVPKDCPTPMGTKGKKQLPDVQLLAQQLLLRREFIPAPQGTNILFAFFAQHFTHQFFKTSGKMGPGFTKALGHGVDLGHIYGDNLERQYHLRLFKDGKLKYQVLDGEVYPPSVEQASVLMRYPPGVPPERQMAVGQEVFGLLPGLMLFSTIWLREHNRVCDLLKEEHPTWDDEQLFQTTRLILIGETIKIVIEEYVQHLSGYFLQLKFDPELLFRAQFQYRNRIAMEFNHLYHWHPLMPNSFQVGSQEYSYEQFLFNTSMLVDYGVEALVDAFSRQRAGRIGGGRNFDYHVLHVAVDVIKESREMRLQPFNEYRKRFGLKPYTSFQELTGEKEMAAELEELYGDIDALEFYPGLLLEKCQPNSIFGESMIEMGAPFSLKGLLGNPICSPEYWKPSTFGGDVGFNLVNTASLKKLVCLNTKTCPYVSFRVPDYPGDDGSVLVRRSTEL
Method: as §1

[8] = tested on: 3T3-L1 fibroblasts; experiment: Adipogenesis (triglyceride accumulation) in 3T3-L1 fibroblasts; conditions: 3T3-L1 fibroblasts, 0.1, 1, 10 μM, no dexamethasone, insulin, IBMX, FIG. 23A
Method: After two days of growth in 6-well plates, cells were treated either with vehicle (0.1% DMSO) or with compounds for ten days. Fresh medium with compounds or vehicle was replenished every 48 h. Cells were washed with PBS twice and fixed in 10% formalin (Sigma) in PBS. After washing in PBS, cells were stained with freshly diluted Oil Red O in isopropanol for 1 h at room temperature. The cells were washed five times with PBS and visualized under an Olympus BH2 microscope. Quantitative accumulation of triglyceride was also measured under similar experimental conditions, except in this case cells were plated in 100-mm tissue culture dishes. Triglyceride was extracted with methanol:chloroform (2:1) mixture. […] Extracted triglyceride was measured by a colorimetric assay (GPO-Trinder, Sigma) according to manufacturer instructions.
After 14 days cells were stained with Oil Red O, counterstained with methylene blue for visual assessment (FIG. 23B) and assayed for triglyceride accumulation.

[9] = tested on: 3T3-L1 adipocytes; experiment: Glucose uptake in differentiated 3T3-L1 adipocytes; assay type: cell-based
Method: Referring to FIG. 8 glucose uptake in 3T3-L1 differentiated adipocytes was measured after treatment with the test compound. The assay was conducted according to the method of Tafuri, Endocrinology, 137, 4706-4712 (1996). The serum-starved cells were treated with the test compound for 48 hours at different concentrations, then washed and incubated in glucose-free media for 30 minutes at 37° C. Then ^14C-deoxyglucose was added and uptake was monitored for 30 minutes under incubation. After washing, the cells were lysed (0.1% SIDS) and counted.
Basal glucose uptake was measured in differentiated 3T3-L1 adipocytes following the protocol of Tafuri (6) with modifications. Briefly, 3T3-L1 fibroblasts, obtained from ATCC (Manassas, Va.), were differentiated to adipocytes by treating cells with porcine insulin (1 μg/ml for 4 days), dexamethasone (0.25 μM for first 2 days) and isobutyl methyl xanthine (IBMX, 0.5 mM for first 2 days) (all from Sigma Chemicals, St Louis, Mo.) following the protocol of Frost and Lane (7). Differentiated adipocytes were incubated in Dulbecco's Modified Eagle Medium (DMEM) containing 10% fetal bovine serum (GibcoBRL, Gaithersburg, Md.) with various concentrations of Compound 11 or vehicle (0.1% DMSO) for 48 h in 24-well plates, in triplicate. Cells were washed with phosphate buffered saline (PBS, 150 mM NaCl, 1 mM KH2PO4, 3 mM Na2HPO4; pH 7.4) and incubated in glucose-free DMEM for 2 h at 37° C. The cells were washed 3 times with Krebs Ringer Phosphate Buffer (KRP). Glucose uptake was initiated by addition of 0.25 μCi 2-^14C(U)-deoxy-D-glucose (300 μCi/mmol, American Radiolabeled Chemicals Inc., St Louis, Mo.) per well and the cells incubated for 10 min at room temperature in the presence of 0.1 mmol cold 2-deoxy-D-glucose. Finally, the cells were washed three times with ice-cold PBS containing 10 mM cold glucose, lysed with 0.5% SDS, and counted in a scintillation counter (Beckman LS6500).

| SMILES | less affinity for PPAR-gamma [1] | glycogen synthesis, decrease ([2]; HepG2, 10 μM, 48 h, FIG. 25A) | increase in glycogen synthesis over baseline ([2]; HepG2, concentrations higher than 30 μM, ± SD, data not shown) | blood glucose lowering effect [3] | inhibition of the phosphorylation of IkappaB [4] | inhibition of the activation of NF-kB (p65) [5] | inhibition of COX-2 activity (PGE2 production) [6] | inhibition of COX-1 activity [7] | maximal triglyceride accumulated, increase over control [8] | effect on insulin-stimulated glucose uptake ([9]; 5 μM with increasing insulin, FIG. 20B) | % Glucose uptake 0.1 μm ([9]; 0.1 μm, average of quadruplicate ± SD) | % Glucose uptake 1.0 μm ([9]; 1.0 μm, average of quadruplicate ± SD) |
| --- | --- | --- | --- | --- | --- | --- | --- | --- | --- | --- | --- | --- |
| CC(C)C[C@H](NC(=O)OCC1c2ccccc2-c2ccccc21)C(=O)O [FMOC-L-Leucine] | approximately 400 fold | – | – | – | – | – | – | – | – | – | – | – |
| CN(CCOc1ccc(CC2SC(=O)NC2=O)cc1)c1ccccn1 (stereo not drawn) [rosiglitazone, reference compound] | – | 0.9 fold | 1.4±0.06 fold | dramatic, comparable blood glucose lowering effects | not | did not inhibit | not | Neither compound inhibited | 9.22 fold | additive, not synergistic | 204.2 ± 8.5 % basal of the non treated cells | 214.7 ± 36.5 % basal of the non treated cells |

Source: patent publication US20060235062A1, “Novel heterocyclic analogs of diphenylethylene compounds” (THERACOS, INC., priority 2002, published 2006)
